# From patent EP2767544A1, “AMORPHOUS SUBSTANCE OF 17 -ACETOXY-11 -(4-N,N-DIMETHYLAMINOPHENYL)-19-NORPREGNA-4,9-DIENE-3,20-DIONE AND PREPARATION METHOD THEREOF” (Shanghai Cdymax Pharmaceuticals Co., Ltd., priority 2011, dated 2013)
# Assays:
# [1] = Solubility test: apparent solubility in water, supernatant concentration determined by HPLC; conditions: for apparent solubility: excess sample in 0.5ml of water, ultrasonic approx. 3 minutes, standing 30 minutes at room temperature, supernatant by HPLC, 30 min
# Description: After standing for 30 minutes at room temperature, separate the supernatant by centrifugation. Determine the concentration of sample in supernatant by HPLC (defined as apparent solubility).
# [2] = Hygroscopicity test using a microbalance; type: physicochemical; conditions: 25 °C, relative humidity of 5% to 95%, Figure 2
# Description: Evaluate hygroscopicity of the amorphous substance using a microbalance (MBA300W, WTI Company, USA). Hang the sample placed on the glass rack in an apparatus that preconditioned at 25 °C, and track the changes of sample weight at a relative humidity of 5% to 95%. Measure the weight of sample at each measurement point (relative humidity) at 2 minutes intervals. The final value was the weight unit at a time point that the variability is less than 0.2%.
# [3] = Stability test: heat treatment under reduced pressure, analysed by XRPD, DSC, TGA and IR; type: physicochemical; conditions: dried under reduced pressure at 80 °C for 8 hours, then in vacuum for 15 hours, TGA
# Description: Dry the samples of the amorphous CDB-2914 obtained in the above-mentioned examples under reduced pressure at 80 °C for 8 hours, and then dry in vacuum for 15 hours.
structure (smiles),measurement,setting,value
"CC(=O)O[C@]1(C(C)=O)CC[C@H]2[C@@H]3CCC4=CC(=O)CCC4=C3[C@@H](c3ccc(N(C)C)cc3)C[C@@]21C [Known crystal(crystal form A), 17α-acetoxy-11β-(4-N,N-dimethylaminophenyl)-19-norpregna-4,9-diene-3,20-dione, reference compound]",apparent solubility,[1],0.125 µg/mL
"CC(=O)O[C@]1(C(C)=O)CC[C@H]2[C@@H]3CCC4=CC(=O)CCC4=C3[C@@H](c3ccc(N(C)C)cc3)C[C@@]21C [amorphous form, 17α-acetoxy-11β-(4-N,N-dimethylaminophenyl)-19-norpregna-4,9-diene-3,20-dione]",hygroscopicity,[2],low hygroscopicity
same,thermal stability (solid form after heat treatment),[3],remained amorphous
same,solubility relative to crystal form A,"[1]; apparent solubility in water, amorphous versus crystal form A",8 times
same,apparent solubility,[1],1 µg/mL
